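Abbreviation: GI50, concentration required for 50% inhibition of growth. TGI: total growth inhibition.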
Legend:
Assay in all cases: DTP human tumour cell line panel, 384-well format
[1] = system: HCC-2998 colon
[2] = system: HCT-15 colon
[3] = system: K-562 leukemia
[4] = system: MOLT-4 leukemia
[5] = system: HL-60(TB) leukemia
[6] = system: MDA-MB-435 melanoma
[7] = system: A498 renal
[8] = system: EKVX NSCLC
[9] = system: MDA-MB-468 breast
[10] = system: 786-0 renal
[11] = system: HOP-62 NSCLC
[12] = system: UO-31 renal
[13] = system: HCT-116 colon

In the case of `COCCOc1cnc2ccn([C@H](C)c3nnc4c(F)cc(-c5cnn(C)c5)cn34)c(=O)c2c1`, the GI50 [1] is reported as > 100 µM, the TGI [1] is reported as > 100 µM and the GI50 [2] is reported as > 100 µM. The TGI [2] was > 100 µM, the GI50 [3] was > 100 µM and the TGI [3] was > 100 µM. For the same compound, the GI50 [4] was > 94 µM, the TGI [4] was > 100 µM and the GI50 [5] was > 100 µM. For the same compound, the TGI [5] was > 100 µM, the GI50 [6] was > 100 µM and the TGI [6] was > 100 µM. The GI50 [7] was > 100 µM, the TGI [7] was > 100 µM and the GI50 [8] was > 100 µM. For the same compound, the TGI [8] was > 100 µM, the GI50 [9] was > 100 µM and the TGI [9] was > 100 µM. The GI50 [10] was > 100 µM, the TGI [10] was > 100 µM and the GI50 [11] was > 100 µM. For the same compound, the TGI [11] was > 100 µM, the GI50 [12] was > 100 µM and the TGI [12] was > 100 µM. For the same compound, the GI50 [13] was > 100 µM and the TGI [13] was > 100 µM.
